Data as given in US12545639B2, “3-substituted phenylamidine compounds, preparation and use thereof” (PI INDUSTRIES LTD., priority 2019, dated 2026).

Assays:
Pyricularia oryzae = assay: microbe, parasite or virus in culture; type: cell-based; conditions: 168 h, read-out: control compared to the untreated check (radial growth)
Colletotrichum capsici = Colletotrichum capsici (anthracnose) in vitro test, radial growth on potato dextrose agar; type: cell-based; conditions: Colletotrichum truncatum, 168 h; 300 ppm in potato dextrose agar; 25° C., 60% relative humidity, seven days; read-out: control compared to the untreated check (radial growth)
Fusarium culmorum = Fusarium culmorum (foot rot of cereals) in vitro test, radial growth on potato dextrose agar; type: cell-based; conditions: 168 h, 300 ppm in potato dextrose agar, 25° C., 60% relative humidity, seven days, read-out: control compared to the untreated check (radial growth)
Experimental: Compounds were dissolved in 0.3% dimethyl sulfoxide and then added to potato dextrose agar medium just prior to dispensing it into petri dishes. 5 mL medium with the compound in the desired concentration was dispensed into 60 mm sterile petri-plates. After solidification each plate was seeded with a 5 mm size mycelial disc taken from the periphery of an actively growing virulent culture plate. Plates were incubated in growth chambers at 25° C. temperature and 60% relative humidity for seven days and then the radial growth was measured and compared to that of the untreated control.

Alternaria solani = Alternaria solani (early blight of tomato/potato) in vitro test, radial growth on potato dextrose agar; type: cell-based; conditions: 168 h, 300 ppm in potato dextrose agar, 25° C., 60% relative humidity, seven days, read-out: control compared to the untreated check (radial growth)
Botrytis cinerea = Botrytis cinerea (gray mold) in vitro test, radial growth on potato dextrose agar; type: cell-based; conditions: 168 h, 300 ppm in potato dextrose agar, 22° C., 90% relative humidity, seven days, read-out: control compared to the untreated check (radial growth)
Rhizoctonia solani = Rhizoctonia solani (rice sheath blight/potato black scurf) in vitro test, radial growth on potato dextrose agar; type: cell-based; conditions: 168 h, 300 ppm in potato dextrose agar, 25° C., 60% relative humidity, seven days, read-out: control compared to the untreated check (radial growth)
[1] = tested on: Septoria lycopersici/Corynespora cassicola (CORYCA); assay: Septoria lycopersici/Corynespora cassicola (CORYCA) (leaf spot of tomato) in vitro test, radial growth on potato dextrose agar; type: cell-based; conditions: 168 h, 300 ppm in potato dextrose agar, 25° C., 70% relative humidity, seven days, read-out: control compared to the untreated check (radial growth)
Phakopsora pachyrhizi = Phakopsora pachyrhizi test in soybean, preventive, in vivo on plants; conditions: in Glycine max, read-out: Efficacy (% control), disease severity compared to the untreated check

CCN(C)C=Nc1cc(Cl)cc(Cc2ccc(C#N)cc2)c1C [Compound 246, N′-(5-chloro-3-(4-cyanobenzyl)-2-methylphenyl)-N-ethyl-N-methylformimidamide]
≥ 70%: inhibition of growth at 300 ppm (Pyricularia oryzae) | inhibition of growth at 300 ppm (Colletotrichum capsici) | inhibition of growth at 300 ppm (Fusarium culmorum) | inhibition of growth at 300 ppm (Alternaria solani) | inhibition of growth at 300 ppm (Botrytis cinerea) | inhibition of growth at 300 ppm (Rhizoctonia solani)

CCN(C)C=Nc1cc(OC)cc(Cc2ccc(F)cc2)c1C [Compound 261, N-ethyl-N′-(3-(4-fluorobenzyl)-5-methoxy-2-methylphenyl)-N-methylformimidamide]
≥ 70%: inhibition of growth at 300 ppm (Pyricularia oryzae) | inhibition of growth at 300 ppm [1] | inhibition of growth at 300 ppm (Fusarium culmorum) | inhibition of growth at 300 ppm (Alternaria solani) | inhibition of growth at 300 ppm (Botrytis cinerea) | pest or weed control at 500 ppm (Phakopsora pachyrhizi) | inhibition of growth at 300 ppm (Rhizoctonia solani)

CCN(C)C=Nc1cc(F)cc(Cc2ccc(C(F)(F)F)cc2)c1C [Compound 188, N-ethyl-N′-(5-fluoro-2-methyl-3-(4-(trifluoromethyl)benzyl)phenyl)-N-methylformimidamide]
≥ 70%: inhibition of growth at 300 ppm (Pyricularia oryzae) | inhibition of growth at 300 ppm [1] | inhibition of growth at 300 ppm (Fusarium culmorum) | inhibition of growth at 300 ppm (Alternaria solani) | inhibition of growth at 300 ppm (Botrytis cinerea) | pest or weed control at 500 ppm (Phakopsora pachyrhizi) | inhibition of growth at 300 ppm (Rhizoctonia solani)

CCN(C)C=Nc1cc(OC)cc(Cc2cc(C)cc(F)c2)c1C [Compound 292, N-ethyl-N′-(3-(3-fluoro-5-methylbenzyl)-5-methoxy-2-methylphenyl)-N-methylformimidamide]
≥ 70%: inhibition of growth at 300 ppm (Pyricularia oryzae) | inhibition of growth at 300 ppm [1] | inhibition of growth at 300 ppm (Fusarium culmorum) | inhibition of growth at 300 ppm (Alternaria solani) | inhibition of growth at 300 ppm (Botrytis cinerea) | inhibition of growth at 300 ppm (Rhizoctonia solani)

CCN(C)C=Nc1cc(OC)cc(Cc2ccc(C(F)(F)F)cc2)c1C [Compound 295, N-ethyl-N′-(5-methoxy-2-methyl-3-(4-(trifluoromethyl)benzyl)phenyl)-N-methylformimidamide]
≥ 70%: inhibition of growth at 300 ppm (Pyricularia oryzae) | inhibition of growth at 300 ppm [1] | inhibition of growth at 300 ppm (Fusarium culmorum) | inhibition of growth at 300 ppm (Alternaria solani) | inhibition of growth at 300 ppm (Botrytis cinerea) | pest or weed control at 500 ppm (Phakopsora pachyrhizi) | inhibition of growth at 300 ppm (Rhizoctonia solani)

CCN(C)C=Nc1cc(OC)cc(Cc2cc(F)ccc2Cl)c1C [Compound 293, N′-(3-(2-chloro-5-fluorobenzyl)-5-methoxy-2-methylphenyl)-N-ethyl-N-methylformimidamide]
≥ 70%: inhibition of growth at 300 ppm (Pyricularia oryzae) | inhibition of growth at 300 ppm [1] | inhibition of growth at 300 ppm (Fusarium culmorum) | inhibition of growth at 300 ppm (Alternaria solani) | inhibition of growth at 300 ppm (Botrytis cinerea) | inhibition of growth at 300 ppm (Rhizoctonia solani)

CCN(C)C=Nc1cc(OC)cc(Cc2ccccc2C)c1C [Compound 262, N-ethyl-N′-(5-methoxy-2-methyl-3-(2-methylbenzyl)phenyl)-N-methylformimidamide]
≥ 70%: inhibition of growth at 300 ppm (Pyricularia oryzae) | inhibition of growth at 300 ppm [1] | inhibition of growth at 300 ppm (Fusarium culmorum) | inhibition of growth at 300 ppm (Alternaria solani) | inhibition of growth at 300 ppm (Botrytis cinerea) | pest or weed control at 500 ppm (Phakopsora pachyrhizi) | inhibition of growth at 300 ppm (Rhizoctonia solani)

CCN(C)C=Nc1cc(OC)cc(Cc2ccccc2Br)c1C [Compound 294, N′-(3-(2-bromobenzyl)-5-methoxy-2-methylphenyl)-N-ethyl-N-methylformimidamide]
≥ 70%: inhibition of growth at 300 ppm (Pyricularia oryzae) | inhibition of growth at 300 ppm [1] | inhibition of growth at 300 ppm (Fusarium culmorum) | inhibition of growth at 300 ppm (Alternaria solani) | inhibition of growth at 300 ppm (Botrytis cinerea) | pest or weed control at 500 ppm (Phakopsora pachyrhizi) | inhibition of growth at 300 ppm (Rhizoctonia solani)

CCN(C)C=Nc1cc(OC)cc(Cc2ccccc2Cl)c1C [Compound 265, N′-(3-(2-chlorobenzyl)-5-methoxy-2-methylphenyl)-N-ethyl-N-methylformimidamide]
≥ 70%: inhibition of growth at 300 ppm (Pyricularia oryzae) | inhibition of growth at 300 ppm [1] | inhibition of growth at 300 ppm (Fusarium culmorum) | inhibition of growth at 300 ppm (Alternaria solani) | inhibition of growth at 300 ppm (Botrytis cinerea) | inhibition of growth at 300 ppm (Rhizoctonia solani)

CCN(C)C=Nc1cc(OC)cc(Cc2cccc(Cl)c2)c1C [Compound 264, N′-(3-(3-chlorobenzyl)-5-methoxy-2-methylphenyl)-N-ethyl-N-methylformimidamide]
≥ 70%: inhibition of growth at 300 ppm (Pyricularia oryzae) | inhibition of growth at 300 ppm [1] | inhibition of growth at 300 ppm (Fusarium culmorum) | inhibition of growth at 300 ppm (Alternaria solani) | inhibition of growth at 300 ppm (Botrytis cinerea) | pest or weed control at 500 ppm (Phakopsora pachyrhizi) | inhibition of growth at 300 ppm (Rhizoctonia solani)

CCN(C)C=Nc1cc(C)cc(Cc2cccc(F)c2)c1SC [Compound 190, N-ethyl-N′-(3-(3-fluorobenzyl)-5-methyl-2-(methylthio)phenyl)-N-methylformimidamide]
≥ 70%: inhibition of growth at 300 ppm (Pyricularia oryzae) | inhibition of growth at 300 ppm (Colletotrichum capsici) | inhibition of growth at 300 ppm (Fusarium culmorum) | inhibition of growth at 300 ppm (Alternaria solani) | pest or weed control at 500 ppm (Phakopsora pachyrhizi) | inhibition of growth at 300 ppm (Rhizoctonia solani)

CCN(C)C=Nc1cc(F)cc(Cc2ccccc2Cl)c1C [Compound 142, N′-(3-(2-chlorobenzyl)-5-fluoro-2-methylphenyl)-N-ethyl-N-methylformimidamide]
≥ 70%: inhibition of growth at 300 ppm (Pyricularia oryzae) | inhibition of growth at 300 ppm [1] | inhibition of growth at 300 ppm (Fusarium culmorum) | inhibition of growth at 300 ppm (Alternaria solani) | inhibition of growth at 300 ppm (Botrytis cinerea) | inhibition of growth at 300 ppm (Rhizoctonia solani)

CCN(C)C=Nc1cc(OC)cc(Cc2ccccc2F)c1C [Compound 266, N-ethyl-N′-(3-(2-fluorobenzyl)-5-methoxy-2-methylphenyl)-N-methylformimidamide]
≥ 70%: inhibition of growth at 300 ppm (Pyricularia oryzae) | inhibition of growth at 300 ppm [1] | inhibition of growth at 300 ppm (Fusarium culmorum) | inhibition of growth at 300 ppm (Alternaria solani) | pest or weed control at 500 ppm (Phakopsora pachyrhizi) | inhibition of growth at 300 ppm (Rhizoctonia solani)

CCN(C)C=Nc1cc(C)cc(Nc2ccc(C)cc2)c1Cl [Compound 1, N′-(2-chloro-5-methyl-3-(p-tolylamino)phenyl)-N-ethyl-N-methylformimidamide]
≥ 70%: inhibition of growth at 300 ppm (Pyricularia oryzae) | inhibition of growth at 300 ppm (Colletotrichum capsici) | inhibition of growth at 300 ppm (Fusarium culmorum) | inhibition of growth at 300 ppm (Alternaria solani) | inhibition of growth at 300 ppm (Rhizoctonia solani)

CCN(C)C=Nc1cc(OC)cc(Cc2ccccc2OC(F)(F)F)c1C [Compound 299, N-ethyl-N′-(5-methoxy-2-methyl-3-(2-(trifluoromethoxy)benzyl)phenyl)-N-methylformimidamide]
≥ 70%: inhibition of growth at 300 ppm (Pyricularia oryzae) | inhibition of growth at 300 ppm [1] | inhibition of growth at 300 ppm (Fusarium culmorum) | inhibition of growth at 300 ppm (Alternaria solani) | inhibition of growth at 300 ppm (Botrytis cinerea) | pest or weed control at 500 ppm (Phakopsora pachyrhizi) | inhibition of growth at 300 ppm (Rhizoctonia solani)

CCN(C)C=Nc1cc(Cl)cc(Nc2cccc(Br)c2)c1C [Compound 164, N′-(3-((3-bromophenyl)amino)-5-chloro-2-methylphenyl)-N-ethyl-N-methylformimidamide]
≥ 70%: inhibition of growth at 300 ppm (Pyricularia oryzae) | inhibition of growth at 300 ppm [1] | inhibition of growth at 300 ppm (Fusarium culmorum) | inhibition of growth at 300 ppm (Alternaria solani) | inhibition of growth at 300 ppm (Botrytis cinerea) | inhibition of growth at 300 ppm (Rhizoctonia solani)

CCN(C)C=Nc1cc(Cl)cc(N(C)c2ncccn2)c1C [Compound 214, N′-(5-chloro-2-methyl-3-(methyl(pyrimidin-2-yl)amino)phenyl)-N-ethyl-N-methylformimidamide]
≥ 70%: inhibition of growth at 300 ppm (Pyricularia oryzae) | inhibition of growth at 300 ppm [1] | inhibition of growth at 300 ppm (Fusarium culmorum) | inhibition of growth at 300 ppm (Alternaria solani) | pest or weed control at 500 ppm (Phakopsora pachyrhizi) | inhibition of growth at 300 ppm (Rhizoctonia solani)

CCN(C)C=Nc1cc(OC)cc(Cc2ccccc2C(F)(F)F)c1C [Compound 307, N-ethyl-N′-(5-methoxy-2-methyl-3-(2-(trifluoromethyl)benzyl)phenyl)-N-methylformimidamide]
≥ 70%: inhibition of growth at 300 ppm (Pyricularia oryzae) | inhibition of growth at 300 ppm [1] | inhibition of growth at 300 ppm (Fusarium culmorum) | inhibition of growth at 300 ppm (Alternaria solani) | inhibition of growth at 300 ppm (Botrytis cinerea) | inhibition of growth at 300 ppm (Rhizoctonia solani)

CCN(C)C=Nc1cc(OC)cc(Cc2ccc(F)c(F)c2)c1C [Compound 286, N′-(3-(3,4-difluorobenzyl)-5-methoxy-2-methylphenyl)-N-ethyl-N-methylformimidamide]
≥ 70%: inhibition of growth at 300 ppm (Pyricularia oryzae) | inhibition of growth at 300 ppm [1] | inhibition of growth at 300 ppm (Fusarium culmorum) | inhibition of growth at 300 ppm (Alternaria solani) | inhibition of growth at 300 ppm (Botrytis cinerea) | pest or weed control at 500 ppm (Phakopsora pachyrhizi) | inhibition of growth at 300 ppm (Rhizoctonia solani)

CCN(C)C=Nc1cc(OC)cc(Cc2cccc(OC(F)(F)F)c2)c1C [Compound 305, N-ethyl-N′-(5-methoxy-2-methyl-3-(3-(trifluoromethoxy)benzyl)phenyl)-N-methylformimidamide]
≥ 70%: inhibition of growth at 300 ppm (Pyricularia oryzae) | inhibition of growth at 300 ppm [1] | inhibition of growth at 300 ppm (Fusarium culmorum) | inhibition of growth at 300 ppm (Alternaria solani) | inhibition of growth at 300 ppm (Botrytis cinerea) | inhibition of growth at 300 ppm (Rhizoctonia solani)
